Measured values published in US10208089B2, “Modulation of complement activity” (priority 2014, dated 2019).
Starred links: 1 amine or outer side, 2 acyl side, 3 side chain; linkers in the order of their positions; H or OH if unused. Positions of bridges follow the written chain, without caps; N, C: chain ends. Non-standard residues stand in square brackets, D forms with d. Residues, ends and D or L forms follow the SMILES beside them. Trp(7-aza) = N[C@@H](Cc1c[nH]c2ncccc12)C(=O)O; mXylylene = c1cc(C[*:1])cc(C[*:2])c1; oXylylene = c1ccc(C[*:2])c(C[*:1])c1; Phg = N[C@H](C(=O)O)c1ccccc1; NMeS = CN[C@@H](CO)C(=O)O; NMeA = CN[C@@H](C)C(=O)O; Nva = CCC[C@H](N)C(=O)O

Target: C5 (Homo sapiens, UniProt P01031)
Sequence (P01031 19-1676): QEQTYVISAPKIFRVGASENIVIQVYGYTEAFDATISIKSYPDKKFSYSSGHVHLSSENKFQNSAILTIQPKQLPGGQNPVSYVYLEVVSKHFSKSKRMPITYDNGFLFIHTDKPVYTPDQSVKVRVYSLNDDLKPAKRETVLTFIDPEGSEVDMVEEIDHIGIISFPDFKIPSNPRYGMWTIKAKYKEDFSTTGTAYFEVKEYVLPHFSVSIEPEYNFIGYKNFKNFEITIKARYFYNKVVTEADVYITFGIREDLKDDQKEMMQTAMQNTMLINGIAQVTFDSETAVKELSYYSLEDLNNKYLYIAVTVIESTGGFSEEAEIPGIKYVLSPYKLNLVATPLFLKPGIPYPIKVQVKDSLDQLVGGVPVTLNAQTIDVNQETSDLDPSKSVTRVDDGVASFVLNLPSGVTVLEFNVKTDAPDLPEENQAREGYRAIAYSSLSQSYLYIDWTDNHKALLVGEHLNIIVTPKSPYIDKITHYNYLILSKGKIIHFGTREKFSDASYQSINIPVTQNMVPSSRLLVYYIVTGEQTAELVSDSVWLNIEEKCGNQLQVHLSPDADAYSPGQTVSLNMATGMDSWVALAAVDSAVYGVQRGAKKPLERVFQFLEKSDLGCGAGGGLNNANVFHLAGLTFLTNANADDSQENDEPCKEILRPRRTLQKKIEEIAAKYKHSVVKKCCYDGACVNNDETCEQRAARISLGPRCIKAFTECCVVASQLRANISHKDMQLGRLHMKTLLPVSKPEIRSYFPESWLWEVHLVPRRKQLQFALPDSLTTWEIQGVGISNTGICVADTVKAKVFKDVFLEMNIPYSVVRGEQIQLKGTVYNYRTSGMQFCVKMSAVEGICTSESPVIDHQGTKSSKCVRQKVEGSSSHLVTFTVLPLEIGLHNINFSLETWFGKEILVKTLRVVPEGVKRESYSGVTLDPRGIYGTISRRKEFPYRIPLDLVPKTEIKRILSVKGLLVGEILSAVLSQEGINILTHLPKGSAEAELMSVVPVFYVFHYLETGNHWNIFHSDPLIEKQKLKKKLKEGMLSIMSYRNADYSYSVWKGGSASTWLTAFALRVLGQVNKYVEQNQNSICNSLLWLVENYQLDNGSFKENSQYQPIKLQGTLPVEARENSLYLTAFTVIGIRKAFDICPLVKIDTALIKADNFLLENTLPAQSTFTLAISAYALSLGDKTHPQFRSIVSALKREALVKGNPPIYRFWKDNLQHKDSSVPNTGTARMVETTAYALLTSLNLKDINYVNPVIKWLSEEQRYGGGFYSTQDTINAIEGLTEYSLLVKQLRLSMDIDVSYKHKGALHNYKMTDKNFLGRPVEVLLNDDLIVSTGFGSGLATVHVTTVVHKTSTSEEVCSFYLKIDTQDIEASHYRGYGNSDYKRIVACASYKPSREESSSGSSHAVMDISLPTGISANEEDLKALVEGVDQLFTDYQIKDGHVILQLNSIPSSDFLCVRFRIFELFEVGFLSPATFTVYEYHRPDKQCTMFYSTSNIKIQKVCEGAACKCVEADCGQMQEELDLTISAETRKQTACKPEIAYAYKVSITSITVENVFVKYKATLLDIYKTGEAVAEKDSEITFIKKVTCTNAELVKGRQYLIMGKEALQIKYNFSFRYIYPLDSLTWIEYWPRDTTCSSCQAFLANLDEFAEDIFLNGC
Assay: Human hemolysis assay (RBC lysis assay using complete human sera)
Type: cell-based
Parameters: with complete human sera (Complement Technology, Tyler Tex.) and polypeptides; tissue Complement Technology, Tyler Tex; host or cells: complete human serum
[1] = inhibition of lysis of antibody-sensitized sheep erythrocytes, complete human sera
[2] = C-terminally truncated polypeptide variants of R3021, inhibition of red blood cell lysis

| Compound | IC50 [1] | IC50 [2] | ability to inhibit red blood cell lysis compared with the parent polypeptide (in words) (variants of R3021, R3002 or R3008) |
| --- | --- | --- | --- |
| CCC[C@H](NC(=O)[C@@H]1CSCc2cccc(c2)CSC[C@H](NC(=O)[C@H](CCC)NC(C)=O)C(=O)N[C@@H](c2ccccc2)C(=O)N[C@@H]([C@@H](C)O)C(=O)N[C@@H](Cc2c[nH]c3ncccc23)C(=O)N[C@@H](CCC(=O)O)C(=O)N[C@@H](C)C(=O)N(C)[C@@H](CO)C(=O)N[C@@H](Cc2c[nH]cn2)C(=O)N1)C(N)=O [Compound R3036, [mXylyl(2,10)]Ac-Nvl-C-Phg-T-azaTrp-E-A-(N-Me)S-H-C-Nvl-NH2] (Ac-[Nva]C[Phg]T[Trp(7-aza)]EA[NMeS]HC[Nva]-NH2; linker 2-10 via mXylylene) | > 50 µM | – | – |
| CCC[C@H](NC(=O)[C@@H]1CSCc2cccc(c2)CSC[C@H](NC(=O)[C@H](CCC)NC(C)=O)C(=O)N[C@@H](c2ccccc2)C(=O)N[C@@H]([C@@H](C)O)C(=O)N[C@@H](Cc2c[nH]c3ncccc23)C(=O)N[C@@H](CCC(=O)O)C(=O)N[C@@H](Cc2ccc(O)cc2)C(=O)N(C)[C@@H](C)C(=O)N[C@@H](Cc2c[nH]cn2)C(=O)N1)C(N)=O [Compound R3037, [mXylyl(2,10)]Ac-Nvl-C-Phg-T-azaTrp-E-Y-(N-Me)A-H-C-Nvl-NH2] (Ac-[Nva]C[Phg]T[Trp(7-aza)]EY[NMeA]HC[Nva]-NH2; linker 2-10 via mXylylene) | 0.276 µM | – | – |
| CCC[C@H](NC(=O)[C@@H]1CSCc2cccc(c2)CSC[C@H](NC(=O)[C@H](CCC)NC(C)=O)C(=O)N[C@@H](c2ccccc2)C(=O)N[C@@H]([C@@H](C)O)C(=O)N[C@@H](Cc2c[nH]c3ncccc23)C(=O)N[C@@H](CCC(=O)O)C(=O)N[C@@H](Cc2ccc(O)cc2)C(=O)N(C)[C@@H](CO)C(=O)N[C@@H](C)C(=O)N1)C(N)=O [Compound R3038, [mXylyl(2,10)]Ac-Nvl-C-Phg-T-azaTrp-E-Y-(N-Me)S-A-C-Nvl-NH2] (Ac-[Nva]C[Phg]T[Trp(7-aza)]EY[NMeS]AC[Nva]-NH2; linker 2-10 via mXylylene) | 0.14 µM | – | – |
| CCC[C@H](NC(C)=O)C(=O)N[C@H]1CSCc2cccc(c2)CSC[C@@H](C(=O)N[C@@H](C)C(N)=O)NC(=O)[C@H](Cc2c[nH]cn2)NC(=O)[C@H](CO)N(C)C(=O)[C@H](Cc2ccc(O)cc2)NC(=O)[C@H](CCC(=O)O)NC(=O)[C@H](Cc2c[nH]c3ncccc23)NC(=O)[C@H]([C@@H](C)O)NC(=O)[C@H](c2ccccc2)NC1=O [Compound R3039, [mXylyl(2,10)]Ac-Nvl-C-Phg-T-azaTrp-E-Y-(N-Me)S-H-C-A-NH2] (Ac-[Nva]C[Phg]T[Trp(7-aza)]EY[NMeS]HCA-NH2; linker 2-10 via mXylylene) | 0.24 µM | – | – |
| CCC[C@H](NC(=O)[C@@H](NC(=O)[C@@H]1CCCN1C(=O)[C@H](Cc1ccc(O)cc1)NC(=O)[C@H](CCC(=O)O)NC(=O)[C@H](Cc1c[nH]c2ccccc12)NC(=O)[C@H](Cc1ccc(O)cc1)NC(=O)[C@@H](NC(=O)[C@H](CC(N)=O)NC(=O)[C@H](CCC(=O)O)NC(=O)[C@H](Cc1ccc(O)cc1)NC(C)=O)C(C)(C)C)c1ccccc1)C(N)=O [Compound R3041, Ac-Y-E-N-Tbg-Y-W-E-Y-P-Phg-Nvl-NH2] | 0.0713 µM | – | – |
| CCC[C@H](NC(=O)[C@@H]1CSSC[C@H](NC(=O)[C@H](CCC)NC(C)=O)C(=O)N[C@@H](c2ccccc2)C(=O)N[C@@H]([C@@H](C)O)C(=O)N[C@@H](Cc2c[nH]c3ncccc23)C(=O)N[C@@H](CCC(=O)O)C(=O)N[C@@H](Cc2ccc(O)cc2)C(=O)N(C)[C@@H](CO)C(=O)N[C@@H](Cc2c[nH]cn2)C(=O)N1)C(N)=O [Compound R3042, [cyclo(2,10)]Ac-Nvl-C-Phg-T-azaTrp-E-Y-(N-Me)S-H-C-Nvl-NH2] (Ac-[Nva]C[Phg]T[Trp(7-aza)]EY[NMeS]HC[Nva]-NH2; disulfide 2-10) | > 100 µM | – | – |
| CSCC[C@H](N)C(=O)N[C@H]1CSCc2cccc(c2)CSC[C@@H](C(=O)N[C@@H](CC(=O)O)C(=O)N[C@H](C(=O)N[C@@H](Cc2ccc(O)cc2)C(=O)N[C@@H](Cc2c[nH]c3ccccc23)C(N)=O)C(C)C)NC(=O)[C@H](Cc2ccccc2)NC(=O)[C@H](CCCNC(=N)N)NC(=O)[C@H](CCC(=O)O)NC(=O)[C@H](C(C)C)NC1=O [Compound R3044, [mXylyl(2,7)]M-C-V-E-R-F-C-D-V-Y-W-NH2] (H-MCVERFCDVYW-NH2; linker 2-7 via mXylylene) | > 50 µM | > 50 µM | – |
| CSCC[C@H](N)C(=O)N[C@H]1CSCc2cccc(c2)CSC[C@@H](C(=O)N[C@@H](CC(=O)O)C(=O)N[C@H](C(=O)N[C@@H](Cc2ccc(O)cc2)C(N)=O)C(C)C)NC(=O)[C@H](Cc2ccccc2)NC(=O)[C@H](CCCNC(=N)N)NC(=O)[C@H](CCC(=O)O)NC(=O)[C@H](C(C)C)NC1=O [Compound R3045, [mXylyl(2,7)]M-C-V-E-R-F-C-D-V-Y-NH2] (H-MCVERFCDVY-NH2; linker 2-7 via mXylylene) | > 100 µM | > 100 µM | – |
| CSCC[C@H](N)C(=O)N[C@H]1CSCc2cccc(c2)CSC[C@@H](C(=O)N[C@@H](CC(=O)O)C(=O)N[C@H](C(N)=O)C(C)C)NC(=O)[C@H](Cc2ccccc2)NC(=O)[C@H](CCCNC(=N)N)NC(=O)[C@H](CCC(=O)O)NC(=O)[C@H](C(C)C)NC1=O [Compound R3046, [mXylyl(2,7)]M-C-V-E-R-F-C-D-V-NH2] (H-MCVERFCDV-NH2; linker 2-7 via mXylylene) | > 100 µM | > 100 µM | – |
| CSCC[C@H](N)C(=O)N[C@H]1CSCc2cccc(c2)CSC[C@@H](C(N)=O)NC(=O)[C@H](Cc2ccccc2)NC(=O)[C@H](CCCNC(=N)N)NC(=O)[C@H](CCC(=O)O)NC(=O)[C@H](C(C)C)NC1=O [Compound R3047, [mXylyl(2,7)]M-C-V-E-R-F-C-NH2] (H-MCVERFC-NH2; linker 2-7 via mXylylene) | > 100 µM | > 100 µM | – |
| CC(=O)N[C@H]1CSCc2cccc(c2)CSC[C@@H](C(=O)N[C@@H](CC(=O)O)C(=O)N[C@H](C(=O)N[C@@H](Cc2ccc(O)cc2)C(=O)N[C@@H](Cc2c[nH]c3ccccc23)C(=O)N[C@@H](CCC(=O)O)C(=O)N[C@@H](Cc2ccccc2)C(N)=O)C(C)C)NC(=O)[C@H](Cc2ccccc2)NC(=O)[C@H](CCCNC(=N)N)NC(=O)[C@H](CCC(=O)O)NC(=O)[C@H](C(C)C)NC1=O [Compound R3048, [mXylyl(1,6)]Ac-C-V-E-R-F-C-D-V-Y-W-E-F-NH2] (Ac-CVERFCDVYWEF-NH2; linker 1-6 via mXylylene) | 0.0193 µM | – | increased the ability |
| CCC[C@H](NC(=O)[C@@H]1CSCc2ccccc2CSC[C@H](NC(=O)[C@H](CCC)NC(C)=O)C(=O)N[C@@H](c2ccccc2)C(=O)N[C@@H]([C@@H](C)O)C(=O)N[C@@H](Cc2c[nH]c3ncccc23)C(=O)N[C@@H](CCC(=O)O)C(=O)N[C@@H](Cc2ccc(O)cc2)C(=O)N(C)[C@@H](CO)C(=O)N[C@@H](Cc2c[nH]cn2)C(=O)N1)C(N)=O [Compound R3049, [oXylyl(2,10)]Ac-Nvl-C-Phg-T-azaTrp-E-Y-(N-Me)S-H-C-Nvl-NE2] (Ac-[Nva]C[Phg]T[Trp(7-aza)]EY[NMeS]HC[Nva]-NH2; linker 2-10 via oXylylene) | > 3.1 µM | – | – |
